These results are taken from ChEMBL document CHEMBL3988442, “University of Dundee, Small-Polar-MMV Screening Library” (2021).

The test relates to Plasmodium falciparum. Description: Calibr Malaria Delayed Death Assay SOP. It counts as functional, organism-based. As to conditions: for IC50: Plasmodium falciparum.

Where “and” joins values, the source holds several entries; their conditions need not be identical. Equal values may be shown once.

Broadly, the pIC50 is the IC50 on a negative log10 scale, so that one unit is a factor of ten. Low readings indicate a large IC50, high ones a small IC50. Broadly, the IC50 is the concentration needed to halve the response being measured. Lower therefore signals greater potency. In turn, `c1cc(-c2n[nH]cc2-c2ccnc(N3CCCC3)n2)ccn1` had a negative logarithm of the IC50 (pIC50) of 7.446 and a half-inhibitory concentration (IC50) of 30.5 nM.

Regarding `c1cc(-c2n[nH]cc2-c2ccnc(N3CCCCCC3)n2)ccn1`, the negative logarithm of the IC50 (pIC50) is listed as 8.34 and the IC50 was 4.12 nM. `OC[C@@H]1CCCN1c1nccc(-c2c[nH]nc2-c2ccncc2)n1` had a pIC50 of 6.195 and an IC50 of 764 nM. In the same order, the values of `CC(C)[C@H](CO)Nc1nccc(-c2c[nH]nc2-c2ccncc2)n1` are 5.945 and 1130 nM. On the same counts, the results for `CNc1cc(C)nc(NC2CCCN(C3Cc4ccccc4C3)C2)n1` (stereo not given) are 6.074 and 775 nM. On the same counts, the results for `CN(Cc1ccsc1)c1nc(-c2ccccn2)nc2c1CCNCC2` are 6.41 and 399 nM. For the molecule `CN(CCO)C[C@@H]1CN(C2CCN(c3ccccc3Cl)CC2)C[C@@H]1CO`, the pIC50 worked out at 6.408 and the IC50 is 316 nM. Molecule `CN(CCO)Cc1cc(Cl)ccc1OCC(O)CN1CCCCCC1` (stereo not given) had a negative logarithm of the IC50 (pIC50) of 6.095 and an IC50 of 765 nM. In the same order, the values of `Oc1cccc2ccc(CN3CCC4(CCNCC4)C3)nc12` are 6.257 and 736 nM. In the same order, the values of `Cn1cc(CN2CCCC(CCc3ccccc3C(F)(F)F)C2)cn1` (stereo not given) are 6.083 and 726 nM. Consider `CN(Cc1ccoc1)C(=O)C1(Oc2ccc(Cl)cc2)CCNCC1`, for which the pIC50 is listed as 6.021 and the IC50 was 977 nM. Regarding `Cn1nc(CN2CCCCC(N)C2)c2c(Cl)cccc21` (stereo not given), the negative-log IC50 (pIC50) turned out to be 6.151 and the half-maximal inhibitory concentration (IC50) was 800 nM. In the case of `Cc1ncc(CN(C)C2CCCN(CCc3ccccc3)C2)n1C` (stereo not given), the negative logarithm of the IC50 (pIC50) was 6.013 and the concentration for half-maximal inhibition (IC50) was 783 nM. As for `COc1cccc(CN2CC(=O)N(c3ccccc3C)CC2C)c1OC` (stereo not given), the negative logarithm of the IC50 (pIC50) is 5.928 and the IC50 was 1420 nM. In the same order, the values of `CC(C)=CCN1CCC2(CC1)c1ccccc1[C@@H](N1CCSCC1)[C@@H]2O` are 5.994 and 991 nM. On the same counts, the results for `CCC[C@H]1CN(S(=O)(=O)c2ccc(-c3c(C)noc3C)s2)C[C@@H]1N` are 6.179 and 798 nM. `c1ccc(C2CN(C3CC3)CC3(CCN(Cc4ncc[nH]4)CC3)C2)cc1` (stereo not given): the pIC50 was 6.233 and 5.873. Consider `CCCOc1ccc2ccccc2c1CN1CC[C@@]2(O)CCNC[C@H]2C1`, for which the negative-log IC50 (pIC50) stood at 6.043 and the IC50 was 924 nM. On the same counts, the results for `Cn1cc(CN2CCCC(CCc3ccc(F)cc3)C2)cn1` (stereo not given) are 5.962 and 1060 nM.

With `CCN1CC(c2ccccc2)CC2(CCN(Cc3ncc[nH]3)CC2)C1` (stereo not given), the negative-log IC50 (pIC50) turned out to be 6.147 and the 50% inhibitory concentration (IC50) was 799 nM.

`Cc1cccc(CN2CCC(Cc3ccccc3F)CC2)n1` had a pIC50 of 6.094 and an IC50 of 776 nM.

Consider `CCN1CCN(C[C@@H]2CN(c3ncc(Cl)cc3F)C[C@@H]2CO)CC1`, for which the pIC50 turned out to be 6.156 and inhibition was half-maximal at 651 nM (IC50). In the same order, the values of `CN[C@@H](C)C(=O)N(Cc1cccc(C)c1)Cc1ccccc1OC` are 6.428 and 316 nM.

Turning to `CN(Cc1ccccc1-n1cccn1)C[C@@H]1CCCN2CCCC[C@H]12`, the negative logarithm of the IC50 (pIC50) is 6.129 and the IC50 is 852 nM. For the molecule `Cc1cc(-n2cccn2)ccc1CN1CCOCC(CN(C)C)C1` (stereo not given), the negative logarithm of the IC50 (pIC50) is 6.139 and the IC50 is 673 nM. On the same counts, the results for `CCN(CC)CCN(C)c1nc(-c2ccc(Cl)cc2)nc2c1CNC2` are 6.071 and 1020 nM. In the same order, the values of `COc1cccc(CN(C)Cc2[nH]c3ccccc3c2C)c1O` are 6.46 and 310 nM.

With `CCc1ccc2nc(NCCCN(CCO)CCO)cc(C)c2c1`, the pIC50 stood at 6.107 and it took 809 nM to reach half-maximal inhibition (IC50). In the same order, the values of `CC1CN(Cc2ccccc2Cn2cccn2)CCN1C` (stereo not given) are 6.079 and 1080 nM. Turning to `CC(C)(C)n1cc(C2=CCN(CCN3CCCCCC3)CC2)cn1`, the pIC50 was determined as 5.987 and the IC50 is 994 nM. In the same order, the values of `NC1(C(=O)NCC2CCCN(Cc3ccccc3F)C2)CCCC1` (stereo not given) are 6.224 and 470 nM. On the same counts, the results for `c1ccc(Oc2nccc3occc23)c(CN2CCCCC2)c1` are 6.272 and 735 nM. Regarding `CC(C)[C@@H]1CN(C(=O)C2(c3ccccc3)CCN(C)CC2)C[C@H]1N(C)C`, the pIC50 is reported as 6.113 and the 50% inhibitory concentration (IC50) was 710 nM. In the case of `CCc1ccc(CN(CCN(C)C)Cc2ccc(C)s2)nc1`, the pIC50 amounted to 6.04 and the half-inhibitory concentration (IC50) was 965 nM. On the same counts, the results for `CN1CCC(N(C)C[C@H]2CC[C@@H](Cc3ccc4occc4c3)O2)CC1` are 6.011 and 993 nM. In turn, `Cc1cccc2[nH]c(-c3cn(C4CCNCC4)nn3)nc12` gave a negative logarithm of the IC50 (pIC50) of 6.226 and a half-maximal inhibitory concentration (IC50) of 597 nM. For `C=Cc1cccc(CN2C[C@@H](CN(C)CC)[C@@H](CO)C2)c1`, the pIC50 is recorded as 5.976 and the IC50 is 1050 nM. For the molecule `O=C(c1scc2c1OCCO2)N1CCOC(CCc2ccccc2)C1` (stereo not given), the pIC50 is listed as 6.32 and the half-maximal inhibitory concentration (IC50) is 386 nM. In turn, `C[C@@H]1CN(C(=O)C2CCS(=O)(=O)CC2)CC[C@@]1(O)C1CCOCC1` had a pIC50 of 6.055 and an IC50 of 998 nM. On the same counts, the results for `COc1ccccc1CCN1CCCC(CN(C)Cc2ccc(C)o2)C1` (stereo not given) are 5.915 and 1030 nM. `CC(C)(C)CNCC1(O)CCCN(Cc2ccccc2F)C1=O` (stereo not given) gave a negative-log IC50 (pIC50) of 6.115 and a half-inhibitory concentration (IC50) of 770 nM. In the same order, the values of `Fc1ccccc1C1(CNC2CCOC3(CCOCC3)C2)CCCC1` (stereo not given) are 6.12 and 796 nM. Turning to `NC1CCCCN(Cc2ccccc2CS(=O)(=O)c2ccccc2)C1` (stereo not given), the negative logarithm of the IC50 (pIC50) was found to be 6.25 and the IC50 is 568 nM. On the same counts, the results for `Cc1ccc(OC2(C(=O)N(C)Cc3ccoc3)CCNCC2)cc1` are 6.094 and 701 nM. The molecule `Cn1cc(CN2CCCC(CCc3ccc(F)cc3F)C2)cn1` (stereo not given) showed a pIC50 of 5.983 and a half-maximal inhibitory concentration (IC50) of 992 nM.

With `COc1cccc(OC)c1CN1CC(=O)N(c2ccc(C)cc2)CC1C` (stereo not given), the pIC50 was 5.987 and half-maximal inhibition (IC50) was put at 877 nM. In the same order, the values of `COCCn1ccnc1CN(Cc1ccccn1)Cc1sccc1C` are 6.065 and 650 nM. As to `Cc1ccc(C2(CN(C)Cc3sccc3C)CCNCC2)nc1`, the pIC50 worked out at 6.117 and the IC50 is 515 nM. In the same order, the values of `c1ccn2c(C3CCCN(c4ncnc5c4CCNC5)C3)nnc2c1` (stereo not given) are 6.629 and 213 nM.

`CN(CCO)C[C@@H]1CN(Cc2ccccc2-c2ccccc2)C[C@@H]1CO` had a pIC50 of 6.276 and a half-maximal inhibitory concentration (IC50) of 611 nM. `Cc1ccc(C)c(OCCNC(=O)[C@@H]2CCCCN2)c1` showed a negative logarithm of the IC50 (pIC50) of 6.461 and an IC50 of 362 nM. On the same counts, the results for `CN(C)c1nc2c(c(NCc3cc(O)ncn3)n1)CCCC2` are 6.202 and 643 nM. On the same counts, the results for `CCC[C@H]1CN(c2nc(CO)cs2)C[C@@H]1NC(=O)C1(COC)CC1` are 5.825 and 1600 nM. On the same counts, the results for `Cc1cc(S(=O)(=O)NCC2CNCCOC2)c(C)cc1Cl` (stereo not given) are 5.962 and 990 nM. As to `Cc1cc(F)ccc1N1CCC(N2C[C@@H](CN(C)C)[C@@H](CO)C2)CC1`, the negative logarithm of the IC50 (pIC50) is reported as 6.511 and the IC50 is 314 nM. `Cc1oc(-c2cc(F)cc(F)c2)nc1CN1C[C@@H](C)NC[C@@H]1C`: the negative logarithm of the IC50 (pIC50) amounted to 5.947 and the IC50 was 719 nM. Molecule `CCc1ccc(C2c3nc[nH]c3CCN2Cc2nccn2CC)nc1` (stereo not given) showed a negative logarithm of the IC50 (pIC50) of 6.077 and an IC50 of 819 nM. For the molecule `Nc1nc2c(c(N3CCCC(c4nnc5ccccn45)C3)n1)CCNC2` (stereo not given), the pIC50 turned out to be 6.831 and the half-inhibitory concentration (IC50) is 144 nM.

The molecule `CC(C)(C)n1cc(C2=CCN(CCc3ccccn3)CC2)cn1` showed a negative logarithm of the IC50 (pIC50) of 6.143 and an IC50 of 1030 nM.

For `CNc1nc(C)cc(NC2CCCN(C3Cc4ccccc4C3)C2)n1` (stereo not given), the pIC50 is 6.114 and the IC50 was 968 nM. Consider `Cc1ccccc1N1CCCN(CC2(O)CCCNC2)CC1` (stereo not given), for which the negative-log IC50 (pIC50) worked out at 6.443 and inhibition was half-maximal at 314 nM (IC50). In the same order, the values of `CN(Cc1ncc[nH]1)c1nc(-c2ccccn2)nc2c1CCNCC2` are 6.511 and 292 nM.

For the molecule `CN1CCC(C2CCN(Cc3cccc(-n4cccn4)c3)CC2)C1` (stereo not given), the negative-log IC50 (pIC50) is listed as 6.139 and the half-maximal inhibitory concentration (IC50) was 656 nM. In the same order, the values of `Clc1cccc2c3c([nH]c12)CCN(Cc1cc2n(n1)CCCNC2)C3` are 6.194 and 965 nM.

`Cc1cccnc1CC(C)NC1Cc2ccccc2C1` (stereo not given) showed a pIC50 of 5.954 and a 50% inhibitory concentration (IC50) of 1290 nM. The molecule `O[C@H]1[C@H](n2cc(CN3CCCC3)nn2)c2ccccc2C12CCNCC2` had a pIC50 of 7.12 and a concentration for half-maximal inhibition (IC50) of 64.7 nM.

As for `CC(C)n1ccnc1C1CCCN(c2ccnc3ccccc23)C1` (stereo not given), the pIC50 is 6.118 and half-maximal inhibition (IC50) required 829 nM. `CC(C)N1CCC(NCc2cccnc2N(C)Cc2ccccc2)CC1`: the negative-log IC50 (pIC50) was 6.416 and half-maximal inhibition (IC50) was put at 447 nM. In the same order, the values of `COc1cccc(CN2CCCC(Nc3cccc(F)c3)C2)c1O` (stereo not given) are 6.314 and 810 nM. In turn, `O=C(c1ccc(F)c(Cl)c1)N1C[C@@H]2CC[C@H](C1)N(Cc1ccccc1)C2` showed a negative-log IC50 (pIC50) of 5.941 and an IC50 of 758 nM. As to `Cc1cc(F)ccc1CN1CCC(O)(CN2CCCCC2)C1` (stereo not given), the pIC50 is recorded as 6.047 and it took 1750 nM to reach half-maximal inhibition (IC50). In the same order, the values of `CCC1CN(C(=O)c2ccc(Cl)cc2O)CCN1C(C)C` (stereo not given) are 5.81 and 1130 nM. Consider `CCn1ccnc1CN1CCCC(CO)(Cc2cccc(Cl)c2)C1` (stereo not given), for which the pIC50 came to 6.076 and the 50% inhibitory concentration (IC50) was 575 nM.
